Patent US20250114387A1, “PHARMACEUTICAL COMPOSITION COMPRISING ENAVOGLIFLOZIN FOR PREVENTING OR TREATING OBESITY IN CANINE ANIMALS” (DAEWOONG PHARMACEUTICAL CO., LTD., priority 2022, published 2025)

Experiments:
obese dogs [1] = test: Clinical trial in obese dogs: BCS, body weight, chest and waist circumference, resting energy requirement, fat thickness, body fat; assay type: in vivo
From the text: Adult dogs which were naturally obese but otherwise healthy were selected regardless of breed, sex, and altered status, and informed consent was obtained from the dog owners for participation in the clinical trial.
As a result of physical examination of all dogs (including body weight and BCS (a total of 9 levels), FIG. 1 and Table 1), those diagnosed as obese were selected. The BCS used to select dogs is classified into a total of 9 levels, and dogs with a BCS of level 6 or higher were selected, and detailed criteria are presented in Table 1 and FIG. 1.
(§1) A total of 20 dogs were selected and divided into 4 groups with 5 dogs in each group: a normal obese control (OC); hereinafter, referred to as a control (OC)), an enavogliflozin 0.2-administered group, an enavogliflozin 0.5-administered group, and an enavogliflozin 1-administered group. The control was fed regular feed, and the enavogliflozin-administered groups were fed regular feed supplemented with enavogliflozin at doses of 0.2, 0.5, or 1 mg/kg, respectively. The feed was supplemented with enavogliflozin once a day for 8 weeks and given orally.
Body weights (BW), chest circumferences, and waist circumferences were measured immediately before the first intake of enavogliflozin-supplemented feed, and once every two weeks for the next 10 weeks. The chest circumferences and waist circumferences were measured four times each at the thickest part of the chest and the thinnest part between the chest and hind legs, and an average size was calculated. Resting energy requirement (RER) was calculated using Equation 1 in the reference document (Brooks et al., Journal of the American Animal Hospital Association 50, 1-11. (2014)).
Fat thicknesses were evaluated by measuring the perpendicular distance from the T10 spinal process to the skin by radiography (Titan 2000 X-ray system, COMED Medical Systems Co., Ltd., Seoul, Korea) on the first day of enavogliflozin administration, and on weeks 4, 8, and 10 of administration. Body fat was measured with a body fat meter every two weeks for a total of 10 weeks after the start of enavogliflozin administration.

obese dogs [2] = test: Clinical trial in obese dogs: hematological tests; assay type: in vivo
Method: as §1
Hematological tests were performed on the day before the first administration of enavogliflozin and once every two weeks for the next 10 weeks. A portion of the blood collected on the day of the test was stored in a CBC tube containing the anticoagulant EDTA-2K to assess a red blood cell (RBC) count, hematocrit (Hct), a hemoglobin (Hb) concentration, a white blood cell (WBC) count, and a platelet (PLT) count using an automated hematology analyzer (ADVIA 2120i™, Siemens Healthcare Diagnostics, Vienna, Austria).

[3] = 0.2 mg/kg once a day oral for 8 weeks, week 0
[4] = 0.2 mg/kg once a day oral for 8 weeks, week 2
[5] = 0.2 mg/kg once a day oral for 8 weeks, week 4
[6] = 0.2 mg/kg once a day oral for 8 weeks, week 6
[7] = 0.2 mg/kg once a day oral for 8 weeks, week 8
[8] = 0.2 mg/kg once a day oral for 8 weeks, week 10
[9] = 0.5 mg/kg once a day oral for 8 weeks, week 0
[10] = 0.5 mg/kg once a day oral for 8 weeks, week 2
[11] = 0.5 mg/kg once a day oral for 8 weeks, week 4
[12] = 0.5 mg/kg once a day oral for 8 weeks, week 6
[13] = 0.5 mg/kg once a day oral for 8 weeks, week 8
[14] = 0.5 mg/kg once a day oral for 8 weeks, week 10
[15] = 1 mg/kg once a day oral for 8 weeks, week 0
[16] = 1 mg/kg once a day oral for 8 weeks, week 2
[17] = 1 mg/kg once a day oral for 8 weeks, week 4
[18] = 1 mg/kg once a day oral for 8 weeks, week 6
[19] = 1 mg/kg once a day oral for 8 weeks, week 8
[20] = 1 mg/kg once a day oral for 8 weeks, week 10
[21] = all enavogliflozin-administered groups
[22] = 0.2 mg/kg once a day oral for 8 weeks
[23] = 0.5 mg/kg once a day oral for 8 weeks
[24] = 1 mg/kg once a day oral for 8 weeks

OC[C@H]1O[C@@H](c2cc(Cc3ccc(C4CC4)cc3)c(Cl)c3c2CCO3)[C@H](O)[C@@H](O)[C@@H]1O [Enavogliflozin, enavogliflozin]
body fat percentage, rank among groups (obese dogs [1]; 0.2 mg/kg): lowest
Change rates of chest circumference (obese dogs [1]; [3]): 100.00 ± 0.00%
Change rates of resting energy requirement (obese dogs [1]; [3]): 100.00 ± 0.00%
Change rates of waist circumference (obese dogs [1]; [3]): 100.00 ± 0.00%
Change rates of chest circumference (obese dogs [1]; [4]): 99.20 ± 3.44%
Change rates of resting energy requirement (obese dogs [1]; [4]): 96.98 ± 2.69%
Change rates of waist circumference (obese dogs [1]; [4]): 100.53 ± 4.71%
Change rates of chest circumference (obese dogs [1]; [5]): 97.16 ± 2.74%
Change rates of resting energy requirement (obese dogs [1]; [5]): 93.41 ± 5.79%
Change rates of waist circumference (obese dogs [1]; [5]): 97.39 ± 12.15%
Change rates of chest circumference (obese dogs [1]; [6]): 95.08 ± 3.96%
Change rates of resting energy requirement (obese dogs [1]; [6]): 95.21 ± 4.10%
Change rates of waist circumference (obese dogs [1]; [6]): 98.96 ± 15.47%
Change rates of chest circumference (obese dogs [1]; [7]): 96.08 ± 2.60%
Change rates of resting energy requirement (obese dogs [1]; [7]): 94.64 ± 3.59 %
Change rates of waist circumference (obese dogs [1]; [7]): 98.89 ± 11.98%
Change rates of chest circumference (obese dogs [1]; [8]): 99.18 ± 3.01%
Change rates of resting energy requirement (obese dogs [1]; [8]): 96.15 ± 4.75%
Change rates of waist circumference (obese dogs [1]; [8]): 101.98 ± 10.78%
BCS compared to the control (OC) (obese dogs [1]; 0.2 mg/kg, at 4, 8, and 10 weeks after the start of administration, p<0.05): significantly lower than the control (OC)
resting energy requirement (RER) compared to the control (OC) (obese dogs [1]; 0.2 mg/kg, at 4 weeks and 8 weeks after the start of administration, p<0.05): significantly lower
body weight compared to the control (OC) (obese dogs [1]; 0.2 mg/kg, from 4 weeks after the start of administration, p<0.05): significantly lower than the control (OC)
fat thickness change, significance (obese dogs [1]; 0.2 mg/kg, week 8 and week 10): significant at week 8 and week 10
body weight (obese dogs [1]; 0.5 mg/kg): decreasing at week 2 and week 4 of the trial and then slowly increasing
Change rates of chest circumference (obese dogs [1]; [9]): 100.00 ± 0.00%
Change rates of resting energy requirement (obese dogs [1]; [9]): 100.00 ± 0.00%
Change rates of waist circumference (obese dogs [1]; [9]): 100.00 ± 0.00%
Change rates of chest circumference (obese dogs [1]; [10]): 98.19 ± 4.31%
Change rates of resting energy requirement (obese dogs [1]; [10]): 98.63 ± 0.72%
Change rates of waist circumference (obese dogs [1]; [10]): 99.57 ± 1.71%
Change rates of chest circumference (obese dogs [1]; [11]): 97.16 ± 3.23%
Change rates of resting energy requirement (obese dogs [1]; [11]): 97.93 ± 1.00%
Change rates of waist circumference (obese dogs [1]; [11]): 98.45 ± 4.94%
Change rates of chest circumference (obese dogs [1]; [12]): 95.60 ± 4.55%
Change rates of resting energy requirement (obese dogs [1]; [12]): 97.54 ± 2.73%
Change rates of waist circumference (obese dogs [1]; [12]): 96.30 ± 3.83%
Change rates of chest circumference (obese dogs [1]; [13]): 93.90 ± 3.11%
Change rates of resting energy requirement (obese dogs [1]; [13]): 96.92 ± 2.00%
Change rates of waist circumference (obese dogs [1]; [13]): 93.84 ± 5.54%
Change rates of chest circumference (obese dogs [1]; [14]): 96.43 ± 2.76%
Change rates of resting energy requirement (obese dogs [1]; [14]): 98.79 ± 2.30%
Change rates of waist circumference (obese dogs [1]; [14]): 96.00 ± 4.72%
BCS (obese dogs [1]; 0.5 mg/kg, entire experimental period): decreased during the entire experimental period
Change rates of chest circumference (obese dogs [1]; [15]): 100.00 ± 0.00%
Change rates of resting energy requirement (obese dogs [1]; [15]): 100.00 ± 0.00%
Change rates of waist circumference (obese dogs [1]; [15]): 100.00 ± 0.00%
Change rates of chest circumference (obese dogs [1]; [16]): 94.79 ± 6.67%
Change rates of resting energy requirement (obese dogs [1]; [16]): 97.75 ± 2.32%
Change rates of waist circumference (obese dogs [1]; [16]): 95.97 ± 11.67%
Change rates of chest circumference (obese dogs [1]; [17]): 99.81 ± 2.43%
Change rates of resting energy requirement (obese dogs [1]; [17]): 98.11 ± 2.18%
Change rates of waist circumference (obese dogs [1]; [17]): 99.18 ± 8.09%
Change rates of chest circumference (obese dogs [1]; [18]): 100.54 ± 4.98%
Change rates of resting energy requirement (obese dogs [1]; [18]): 98.95 ± 2.07%
Change rates of waist circumference (obese dogs [1]; [18]): 103.75 ± 10.54%
Change rates of chest circumference (obese dogs [1]; [19]): 99.20 ± 4.49%
Change rates of resting energy requirement (obese dogs [1]; [19]): 99.19 ± 4.05%
Change rates of waist circumference (obese dogs [1]; [19]): 99.76 ± 12.53%
Change rates of chest circumference (obese dogs [1]; [20]): 100.24 ± 5.15%
Change rates of resting energy requirement (obese dogs [1]; [20]): 99.97 ± 6.15%
Change rates of waist circumference (obese dogs [1]; [20]): 101.33 ± 14.44%
BCS compared to the control (OC) (obese dogs [1]; 1 mg/kg, at the end of the experiment): lower than the control (OC) at the end of the experiment
BCS compared to the control (OC) (obese dogs [1]; 1 mg/kg, during the experiment): slightly increased compared to the control (OC)
BCS, body weight, body fat percentage, fat thickness, and chest and waist circumferences (obese dogs [1]; 8-week administration): reduced
fat thickness (obese dogs [1]; all administration groups (0.2, 0.5, 1 mg/kg)): decreased in all administration groups
chest circumference (obese dogs [1]; [21]): decreased
waist circumference (obese dogs [1]; [21]): decreased
body fat percentage (obese dogs [1]; all groups (0.2, 0.5, 1 mg/kg)): no significant differences
anti-obesity results, comparison of doses (obese dogs [1]; feed supplemented with 0.2 mg/kg): most effective results
Hb (obese dogs [2]; [22]): 16.34 ± 2.68 g/dL
Hct (obese dogs [2]; [22]): 49.86 ± 7.08%
Platelet (obese dogs [2]; [22]): 392.20 ± 11.16 ×10^3/μL
RBC (obese dogs [2]; [22]): 6.92 ± 0.79 ×10^6 μL
WBC (obese dogs [2]; [22]): 11.12 ± 3.69 ×10^3 μL
Hb (obese dogs [2]; [23]): 16.40 ± 0.70 g/dL
Hct (obese dogs [2]; [23]): 50.26 ± 1.94%
Platelet (obese dogs [2]; [23]): 307.40 ± 6.02 ×10^3/μL
WBC (obese dogs [2]; [23]): 7.75 ± 2.04 ×10^3 μL
Hb (obese dogs [2]; [24]): 16.16 ± 2.15 g/dL
Hct (obese dogs [2]; [24]): 46.76 ± 6.13%
Platelet (obese dogs [2]; [24]): 299.10 ± 7.65 ×10^3/μL
RBC (obese dogs [2]; [24]): 6.55 ± 1.08 ×10^6 μL
WBC (obese dogs [2]; [24]): 10.01 ± 3.35 ×10^3 μL
platelet (PLT) count compared to the control (OC) (obese dogs [2]; 1 mg/kg, p<0.05): significantly lower than that of the control (OC)
hematological indicators, differences between the administration groups (obese dogs [2]; 10-week trial period, except for the platelet (PLT) count): no significant differences
